Counter-ions that a name gives are not always drawn.
test system: IL-2 production; assay: Inhibition of IL-2 production in PHA-activated Jurkat cells (ELISA); format: cell-based; conditions: Homo sapiens, Jurkat, 20 h, PHA 2.5 μg/mL, IL-2 ELISA
Method: Jurkat cells were placed in a 96 well plate (0.5 million cells per well in 1% FBS medium) then a test compound of this invention was added at different concentrations. After 10 minutes, the cells were activated with PHA (final concentration 2.5 μg/mL) and incubated for 20 hours at 37° C. under CO2. The final volume was 200 μL. Following incubation, the cells were centrifuged and the supernatants collected and stored at −70° C. prior to assaying for IL-2 production. A commercial ELISA kit (IL-2 Eli-pair, Diaclone Research, Besancon, France) was used to detect production of IL-2, from which dose response curves were obtained. The IC50 value was calculated as the concentration at which 50% of maximum IL-2 production after stimulation was inhibited versus a non-stimulation control.

Row | IC50 [nM] | Compound
1 | 3 | Cc1cc(-c2ccno2)sc1-c1ccc(NC(=O)c2c(F)cccc2F)cc1 [Compound 1, 2,6-difluoro-N-(4-(5-(isoxazol-5-yl)-3-methylthiophen-2-yl)phenyl)benzamide]
2 | 7 | Cc1cc(-c2nccs2)sc1-c1ccc(NC(=O)c2c(F)cccc2F)cc1 [Compound 2, 2,6-difluoro-N-(4-(3-methyl-5-(thiazol-2-yl)thiophen-2-yl)phenyl)benzamide]
3 | 8 | Cc1cc(-c2cncn2C)sc1-c1ccc(NC(=O)c2c(F)cccc2F)cc1 [Compound 3, 2,6-difluoro-N-(4-(3-methyl-5-(1-methyl-1H-imidazol-5-yl)thiophen-2-yl)phenyl)benzamide]
4 | 15 | Cc1sc(-c2cnco2)cc1-c1cnc(NC(=O)c2c(F)cccc2F)cn1 [Compound 4, 2,6-difluoro-N-(5-(2-methyl-5-(oxazol-5-yl)thiophen-3-yl)pyrazin-2-yl)benzamide]
5 | 10 | Cc1sc(-c2cnco2)cc1-c1ccc(NC(=O)c2c(F)cccc2F)nc1 [Compound 5, 2,6-difluoro-N-(5-(2-methyl-5-(oxazol-5-yl)thiophen-3-yl)pyridin-2-yl)benzamide]
6 | 2 | Cc1cc(-c2cccnc2)sc1-c1ccc(NC(=O)c2c(F)cccc2F)cc1 [Compound 6, 2,6-difluoro-N-(4-(3-methyl-5-(pyridin-3-yl)thiophen-2-yl)phenyl)benzamide]
7 | 3 | Cc1sc(-c2cccnc2)cc1-c1ccc(NC(=O)c2c(F)cccc2F)cc1 [Compound 7, 2,6-difluoro-N-(4-(2-methyl-5-(pyridin-3-yl)thiophen-3-yl)phenyl)benzamide]
8 | 6 | Cc1sc(-c2nccs2)cc1-c1ccc(NC(=O)c2c(F)cccc2F)cc1 [Compound 8, 2,6-difluoro-N-(4-(2-methyl-5-(thiazol-2-yl)thiophen-3-yl)phenyl)benzamide]
9 | 9 | Cc1sc(-c2nnco2)cc1-c1ccc(NC(=O)c2c(F)cccc2F)cc1 [Compound 9, 2,6-difluoro-N-(4-(2-methyl-5-(1,3,4-oxadiazol-2-yl)thiophen-3-yl)phenyl)benzamide]
10 | 31 | Cc1sc(-c2cnco2)cc1-c1ccc(NC(=O)c2c(F)cccc2F)cn1 [Compound 10, 2,6-difluoro-N-(6-(2-methyl-5-(oxazol-5-yl)thiophen-3-yl)pyridin-3-yl)benzamide]
11 | 16 | Cc1sc(-c2cnc[nH]2)cc1-c1ccc(NC(=O)c2c(F)cccc2F)cc1 [Compound 11, N-(4-(5-(1H-imidazol-5-yl)-2-methylthiophen-3-yl)phenyl)-2,6-difluorobenzamide]
12 | 9 | Cc1ccncc1-c1cc(-c2ccc(NC(=O)c3c(F)cccc3F)cc2)c(C)s1 [Compound 12, 2,6-difluoro-N-(4-(2-methyl-5-(4-methylpyridin-3-yl)thiophen-3-yl)phenyl)benzamide]
13 | 73 | COc1ncc(Cl)cc1-c1cc(-c2ccc(NC(=O)c3c(F)cccc3F)cc2)c(C)s1 [Compound 13, N-(4-(5-(5-chloro-2-methoxypyridin-3-yl)-2-methylthiophen-3-yl)phenyl)-2,6-difluorobenzamide]
14 | 8 | Cc1sc(-c2nccs2)cc1-c1ccc(NC(=O)c2c(F)cccc2F)nc1 [Compound 14, 2,6-difluoro-N-(5-(2-methyl-5-(thiazol-2-yl)thiophen-3-yl)pyridin-2-yl)benzamide]
15 | 10 | Cc1sc(-c2nccs2)cc1-c1cnc(NC(=O)c2c(F)cccc2F)cn1 [Compound 15, 2,6-difluoro-N-(5-(2-methyl-5-(thiazol-2-yl)thiophen-3-yl)pyrazin-2-yl)benzamide]
16 | 50 | Cc1sc(-c2cnc[nH]2)cc1-c1ccc(NC(=O)c2c(F)cccc2F)nc1 [Compound 16, N-(5-(5-(1H-imidazol-5-yl)-2-methylthiophen-3-yl)pyridin-2-yl)-2,6-difluorobenzamide]
17 | 25 | Cc1sc(-c2cncn2C)cc1-c1ccc(NC(=O)c2c(F)cccc2F)nc1 [Compound 17, 2,6-difluoro-N-(5-(2-methyl-5-(1-methyl-1H-imidazol-5-yl)thiophen-3-yl)pyridin-2-yl)benzamide]
18 | 17 | Cc1cnccc1C(=O)Nc1ccc(-c2cc(-c3cnco3)sc2C)cn1 [Compound 18, 3-methyl-N-(5-(2-methyl-5-(oxazol-5-yl)thiophen-3-yl)pyridin-2-yl)isonicotinamide]
19 | 3 | Cc1sc(-c2cnccc2Cl)cc1-c1ccc(NC(=O)c2c(F)cccc2F)cc1 [Compound 19, N-(4-(5-(4-chloropyridin-3-yl)-2-methylthiophen-3-yl)phenyl)-2,6-difluorobenzamide]
20 | 19 | COc1ccncc1-c1cc(-c2ccc(NC(=O)c3c(F)cccc3F)cc2)c(C)s1 [Compound 20, 2,6-difluoro-N-(4-(5-(4-methoxypyridin-3-yl)-2-methylthiophen-3-yl)phenyl)benzamide]
21 | 27 | Cc1sc(-c2cncn2C)cc1-c1cnc(NC(=O)c2c(F)cccc2F)cn1 [Compound 21, 2,6-difluoro-N-(5-(2-methyl-5-(1-methyl-1H-imidazol-5-yl)thiophen-3-yl)pyrazin-2-yl)benzamide]
22 | 152 | Cc1sc(-c2cnc[nH]2)cc1-c1cnc(NC(=O)c2c(F)cccc2F)cn1 [Compound 22, N-(5-(5-(1H-imidazol-5-yl)-2-methylthiophen-3-yl)pyrazin-2-yl)-2,6-difluorobenzamide]
23 | 6 | Cc1sc(-c2cncn2C)cc1-c1ccc(NC(=O)c2c(F)cccc2F)cc1 [Compound 23, 2,6-difluoro-N-(4-(2-methyl-5-(1-methyl-1H-imidazol-5-yl)thiophen-3-yl)phenyl)benzamide]
24 | 27 | CCn1cncc1-c1cc(-c2ccc(NC(=O)c3c(F)cccc3F)cc2)c(C)s1 [Compound 25, N-(4-(5-(1-ethyl-1H-imidazol-5-yl)-2-methylthiophen-3-yl)phenyl)-2,6-difluorobenzamide]

same assay, conditions: PHA 2.5 μg/mL, 20 hours, IL-2 ELISA, hydrochloride

Row | IC50 [nM] | Compound
25 | 3 | Cc1sc(-c2cncn2C)cc1-c1ccc(NC(=O)c2c(F)cccc2F)cc1 [Compound 24, 2,6-difluoro-N-(4-(2-methyl-5-(1-methyl-1H-imidazol-5-yl)thiophen-3-yl)phenyl)benzamide hydrochloride]

Reference: patent publication US20130236481A1, “HETEROCYCLE -ARYL COMPOUNDS FOR INFLAMMATION AND IMMUNE-RELATED USES” (SYNTA PHARMACEUTICALS CORP., priority 2007, published 2013)
